Laboratory results: patent publication US20210332024A1, “MODULATORS OF PIN1 ACTIVITY AND USES THEREOF” (Yeda Research and Development Co. Ltd., priority 2019, published 2021)

Columns and labels:
Pin1 in IMR32 cells = target: T1, Pin1 in IMR32 cells (Homo sapiens, UniProt Q13526); experiment: Live cell competition assay with Pin1-3-DTB pull-down, IMR32 cells; assay type: cell-based; details: IMR32 cells
T1 construct: endogenous in cells; host or cells: IMR32
Description: The indicated cells were treated with increasing concentrations of either DMSO, Pin1-3, or Pin1-3-AcA for 5 hours. Cells were harvested by scraping and washed twice with PBS before lysis with 50 mM HEPES (pH 7.4), 1 mM EDTA, 10% glycerol, 1 mM TCEP, 150 mM NaCl, 1 mM EDTA, 0.5% NP-40, and protease inhibitor tablet (Roche cat. #4693159001). After clarifying (14,000 rpm for 15 minutes), samples were treated with the indicated concentrations of Pin1-3-DTB at 4° C. for 1 hour. Lysates were then incubated with streptavidin agarose resin (Thermo Scientific, cat. #20349) for 1.5 hour at 4° C. Beads were washed four times with 500 μl of washing buffer (50 mM HEPES (pH 7.5), 10 mM NaCl, 1 mM EDTA, 10% glycerol), then pelleted by centrifugation and dried. The beads were boiled for 5 minutes at 95° C. in 2×LDS+10% β-mercaptoethanol. Proteins of interest were then assessed via Western blotting using the bolt system (Life Technologies).
The indicated cells were plated in 10 cm plates with 2.5 million cells per plate in 6 ml of medium. The day after plating, cells were treated with the indicated concentrations of candidate inhibitor for the indicated time points. The cells were then washed two times with cold phosphate buffer saline (1 ml per 10 cm plate) and collected by scraping with a cell scraper. […]

[1] = tested on: wild-type 8988T pancreatic cancer cells; experiment: Organoid growth in Matrigel, wild-type PATU-8988T; assay type: cell-based; details: 1 μM, 9 days
Description: As three dimensional (3D) organoid models can reflect in vivo results better than monolayer cell culture [Baker et al., Trends Cancer Res 2016, 2:176-190], the anti-proliferative activity of Pin1-3 in PATU-8988T was further evaluated in wild-type or Pin1-knockout cells grown as organoids in Matrigel™ droplets. Cells were treated for 9 days with Pin1-3 (or Pin1-3-AcA or vehicle as a control), replenishing the compound in media every 3 days.

[2] = tested on: Myc transcriptional output in Mino B cells; experiment: RNA sequencing and gene set enrichment; assay type: cell-based, human; details: 1 μM, 6 hours
Description: Mino cells (acquired from the ATCC) were grown at 37° C. in a 5% CO2 humidified incubator and cultured in RPMI-1640 (Biological Industries), supplemented with 15% fetal bovine serum (Biological Industries) and 1% pen-strep solution (Biological Industries). 11×10^6 cells were incubated with 1 μM Pin1-3 (0.02% DMSO) or with 0.02% DMSO in triplicates for 6 hours. Total RNA was isolated with RNeasy™ kit (Qiagen). RNA libraries were prepared from 2 μg total RNA using SENSE™ mRNA-Seq library prep kit V2 (Lexogen). Total RNA and library quality was analyzed using Qubit™ fluorometric and TapeStation™ analysis (Agilent). Samples were sequenced using NextSeg™ 500/550 High Output Kit v2.5 (Illumina) on NextSeg™ 550.
RNA-seq reads were aligned to the human genome (hg19 assembly) using STAR [Dobin et al., Bioinformatics 2013, 29:15-21] and gene expression was determined using RSEM [L1 & Dewey, BMC Bioinformatics 2011, 12:323] and RefSeq annotations. Differential expression was computed using DESeq2 [Love et al., Genome Biol 2014, 15:550] with default parameters.
In order to test whether Pin1-3 affects Myc transcriptional output, Mino B cells were treated with Pin1-3 (1 μM) for 6 hours (in triplicates) or vehicle (DMSO), followed by a global RNA sequencing analysis to detect differentially expressed genes as the result of this perturbation. […]

[3] = tested on: transplanted EGFP-labeled neuroblastoma cells; experiment: Primary tumor derived allograft (PDA) neuroblastoma model in zebrafish embryos; assay type: in vivo; details: 100 μM in the fish water, five days
Description: The anti-tumor activity of Pin1-3 was then assessed on the maintenance of fully transformed neuroblastoma cells in vivo in primary tumor derived allograft (PDA) models constructed in transplanted zebrafish embryos. EGFP-labeled neuroblastoma cells were dissected from 4-month-old Tg(dβh:MYCN;dβh:EGFP) donor zebrafish, disaggregated, counted and 200-400 GFP-labeled tumor cells were injected intravenously into the Duct of Cuvier (common cardinal vein) of 2 dpf zebrafish embryos [He et al., J Pathol 2012, 227:431-445]. One day after injection, 100 μM Pin1-3 or the DMSO control was added to the fish water containing embryos bearing the transplanted EGFP-labeled neuroblastoma cells. Five days later, the area of the EGFP-labeled tumor mass in treated embryos was quantified.

Acute toxic model = assay type: in vivo, mice; details: 10, 20 or 40 mg/kg intraperitoneally every day for two weeks
Description: Toxicity of Pin1-3 was then evaluated in an acute toxic model. Mice were injected with 10, 20 or 40 mg/kg Pin1-3 intraperitoneally every day for two weeks.

germinal centers = experiment: Germinal center size after NP-OVA immunization; assay type: in vivo, mice; details: IP 40 mg/kg on days 7 and 9 post immunization, day 11
Description: 12 wild-type mice were immunized with OVA coupled to the hapten 4-hydroxy-3-nitrophenylacetyl (NP-OVA) precipitated in alum. The mice were injected with two doses of Pin1-3 (IP; 40 mg/kg) or vehicle on days 7 and 9 post immunization, and on day 11 the mice were sacrificed and germinal centers size was assessed in lymph nodes by flow cytometry.

[4] = tested on: PDX (patient-derived xenograft) tumors; experiment: PDX orthotopic xenograft mouse model; assay type: in vivo; details: IP 2 or 4 mg/kg every day, 6 weeks
Description: 4×2 mm PDX (patient-derived xenograft) tumors were transplanted into NSC mouse pancreas (orthotopic xenografts). After 1 week of the transplantation, treatment of mice with Pin1-3 began. Mice were treated (IP) with Pin1-3 diluted solution (as a control), or 2 or 4 mg/kg […] every day. Tumor size were measured and mice were sacrificed after 6 weeks to collect tumor tissue (n=5).

T1 sequence (Q13526 whole entry): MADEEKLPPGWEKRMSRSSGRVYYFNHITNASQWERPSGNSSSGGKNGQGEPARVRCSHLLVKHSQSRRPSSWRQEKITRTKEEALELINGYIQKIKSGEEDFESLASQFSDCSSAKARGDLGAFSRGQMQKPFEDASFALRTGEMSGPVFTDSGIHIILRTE

## CC(C)(C)CN(C(=O)CCl)C1CCS(=O)(=O)C1 (stereo not shown) [Pin1-3, 2-chloro-N-(sulfolan-3-yl)-N-neopentylacetamide]
Pin1 in IMR32 cells
  Concentration of full engagement of Pin1: 1 µM
[1]
  Organoid growth: significantly retarded organoid growth
[2]
  Myc transcriptional signature (Enrichr, ENCODE TF ChIP-seq sets): significant downregulation of Myc's transcriptional signature
  Number of genes significantly downregulated: 206 genes
[3]
  EGFP-labeled tumor mass: tumor masses decreased in size
Acute toxic model
  Adverse effects: No adverse effects
  Post-mortem examination: no pathologies
  Weight: normal
Germinal centers
  Germinal centers size (FAS^Hi CD38^− GC cells, flow cytometry): significantly larger germinal centers
[4]
  PDX tumor growth: inhibited PDX tumor growth in mice in a dose-dependent manner
